From US20150141435A1, “2-PYRIDONE ANTIMICROBIAL COMPOSITIONS” (Emergent BioSolutions, priority 2010, published 2015)
Values after ≈ are worked out from the molar mass of the structure shown. Counter-ions that a name gives are not always drawn. Like-named read-outs stand apart in the source and are kept apart here.

Test system: bacterial pathogens resistant against quinolones antibiotics
Test: MIC against quinolone-resistant bacterial pathogens (Table 5)
Assay type: cell-based
[1] = Enterococcus faecalis, read-out: MICs, Enterococcus faecalis vancomycin-resistant (VanB) clinical isolate, GP14
[2] = Enterococcus faecium, read-out: MICs, Enterococcus faecium vancomycin-resistant (VanA) clinical isolate, GP17
[3] = Escherichia coli, GN03, read-out: MICs, Escherichia coli multi-drug resistant clinical isolate, GN03
[4] = Providencia stuartii, GN24, read-out: MICs, Providencia stuartii multi-drug resistant clinical isolate, GN24
[5] = Pseudomonas aeruginosa, GN64, read-out: MICs, Pseudomonas aeruginosa levofloxacin-resistant clinical isolate, GN64
[6] = Staphylococcus aureus, MRSA, read-out: MICs, EMRSA16 Staphylococcus aureus (MRSA) SSCmec type 2, GP33
[7] = Staphylococcus aureus, read-out: MICs, Staphylococcus aureus levofloxacin-resistant clinical isolate, amino acid changes GrlA, GrlB & GyrA, GP82
[8] = Staphylococcus aureus, read-out: MICs, Staphylococcus aureus multi-drug-resistant clinical isolate, GP5
[9] = Streptococcus pneumoniae, read-out: MICs, Streptococcus pneumoniae multi-drug resistant clinical isolate, GP24
[10] = read-out: MICs, Acinetobacter haumannii levofloxacin-resistant clinical isolate, GN54

Row | Compound | MIC [1] | MIC [2] | MIC [3] | MIC [4] | MIC [5] | MIC [6] | MIC [7] | MIC [8] | MIC [9] | MIC [10] | MIC (Acinetobacter haumannii levofloxacin-resistant clinical isolate, GN54, read-out: MICs) | MIC (EMRSA16 Staphylococcus aureus (MRSA) SSCmec type 2, GP33, read-out: MICs) | MIC (Enterococcus faecalis vancomycin-resistant (VanB) clinical isolate, GP14, read-out: MICs) | MIC (Enterococcus faecium vancomycin-resistant (VanA) clinical isolate, GP17, read-out: MICs) | MIC (Escherichia coli multi-drug resistant clinical isolate, GN03, read-out: MICs) | MIC (Providencia stuartii multi-drug resistant clinical isolate, GN24, read-out: MICs) | MIC (Pseudomonas aeruginosa levofloxacin-resistant clinical isolate, GN64, read-out: MICs) | MIC (Staphylococcus aureus multi-drug-resistant clinical isolate, GP5, read-out: MICs) | MIC (Streptococcus pneumoniae multi-drug resistant clinical isolate, GP24, read-out: MICs)
1 | Cc1c(-c2ccc(O)cc2)ccn2c(=O)c(C(=O)O)cc(C3CC3)c12 [Example 46 K salt, 1-cyclopropyl-8-(4-hydroxy-phenyl)-9-methyl-4-oxo-4H-quinolizine-3-carboxylic acid] | 0.5 µg/mL | 1 µg/mL | 8 µg/mL | 2 µg/mL | 4 µg/mL | 0.06 µg/mL | 0.03 µg/mL | 0.06 µg/mL | 0.12 µg/mL | 2 µg/mL | – | – | – | – | – | – | – | – | –
2 | Cc1c(-c2ccc(N)c(F)c2)ccn2c(=O)c(C(=O)O)cc(C3CC3)c12 [Example 2 K salt, 8-(4-amino-3-fluoro-phenyl)-1-cyclopropyl-9-methyl-4-oxo-4H-quinolizine-3-carboxylic acid] | 0.5 µg/mL | 2 µg/mL | – | 1 µg/mL | 2 µg/mL | 0.12 µg/mL | 0.06 µg/mL | 0.06 µg/mL | 0.12 µg/mL | 2 µg/mL | – | – | – | – | – | – | – | – | –
3 | Cc1c(-c2cc(F)c(N)cc2F)ccn2c(=O)c(C(=O)O)cc(C3CC3)c12 [Example 28 K salt, 8-(4-amino-2,5-difluoro-phenyl)-1-cyclopropyl-9-methyl-4-oxo-4H-quinolizine-3-carboxylic acid] | 0.25 µg/mL | 1 µg/mL | 16 µg/mL | 1 µg/mL | 4 µg/mL | 0.06 µg/mL | 0.03 µg/mL | 0.06 µg/mL | 0.06 µg/mL | 2 µg/mL | – | – | – | – | – | – | – | – | –
4 | Cc1c(-c2ccc(N)nc2)ccn2c(=O)c(C(=O)O)cc(C3CC3)c12 [Example 21 K salt, 8-(6-amino-pyridin-3-yl)-1-cyclopropyl-9-methyl-4-oxo-4H-quinolizine-3-carboxylic acid] | 1 µg/mL | 4 µg/mL | 16 µg/mL | 2 µg/mL | 4 µg/mL | 0.25 µg/mL | 0.12 µg/mL | 0.25 µg/mL | 0.12 µg/mL | 4 µg/mL | – | – | – | – | – | – | – | – | –
5 | Cc1c(-c2ccc3[nH]ncc3c2)ccn2c(=O)c(C(=O)O)cc(C3CC3)c12 [Example 23 K salt, 1-cyclopropyl-8-(1H-indazol-5-yl)-9-methyl-4-oxo-4H-quinolizine-3-carboxylic acid] | 0.25 µg/mL | 0.5 µg/mL | 4 µg/mL | 1 µg/mL | 2 µg/mL | 0.03 µg/mL | – | 0.03 µg/mL | 0.03 µg/mL | 1 µg/mL | – | – | – | – | – | – | – | – | –
6 | C[C@H]1COc2c(N3CCN(C)CC3)c(F)cc3c(=O)c(C(=O)O)cn1c23 [Levofloxacin] | – | – | – | – | – | – | 8 µg/mL (≈ 22.1 µM) | – | – | – | ≥ 16 µg/mL | ≥ 16 µg/mL | ≥ 16 µg/mL | ≥ 16 µg/mL | ≥ 16 µg/mL | ≥ 16 µg/mL | ≥ 16 µg/mL | ≥ 16 µg/mL | 2 µg/mL (≈ 5.53 µM)
